We go through 16 molecules from PubChem BioAssay AID328 (DTP/NCI, 2004).

The subject of the test is BDF1 mice, P388 leukemia ip, median survival T/C. Description: NCI In Vivo Anticancer Drug Screen. Data for tumor model P388 Leukemia (intraperitoneal) in B6D2F1 (BDF1) mice. Particulars: endpoint: median survival time, higher = longer survival. The method in brief: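 Mice carrying the transplantable tumour receive compound or vehicle. Survival is followed in each arm, and the treated measure is divided by the vehicle measure.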

Setting [1] is: dose: 50.0 mg/kg/injection, schedule: Q01DX009 (ip), vehicle: saline with Tween-80.
The mark [2] stands for this setting: dose: 100.0 mg/kg/injection, schedule: Q01DX009 (ip), vehicle: saline with Tween-80.
Setting [3] is: dose: 200.0 mg/kg/injection, schedule: Q01DX009 (ip), vehicle: saline with Tween-80.
The mark [4] stands for this setting: dose: 25.0 mg/kg/injection, schedule: Q01DX009 (ip), vehicle: saline.

Where “and” joins values, the source holds several entries; their conditions need not be identical. Identical values can stand only once. Toxic doses and inconclusive results are not listed.

Take `FC(F)(F)c1ccc(C=Nc2ccc(Oc3ccccc3)cc2)cc1`: the T/C under setting [1] is 98 % of control, the T/C under setting [2] was 100 % of control and the T/C under setting [3] was 91 % of control.

`Cc1cc(N(CCCl)CCCl)ccc1N=Nc1ccccc1C(=O)O`: the T/C (dose: 5.0 mg/kg/injection, schedule: Q01DX010 (ip), vehicle: saline) was 150 % of control; the T/C (dose: 10.0 mg/kg/injection, schedule: Q01DX010 (ip), vehicle: saline) is 175 % of control; the T/C (dose: 20.0 mg/kg/injection, schedule: Q01DX010 (ip), vehicle: saline) was 210 % of control; the T/C (dose: 40.0 mg/kg/injection, schedule: Q01DX010 (ip), vehicle: saline) is 95 % of control.

As for `CN(C)CCCN=C1Nc2ccccc2C(=NCCCN(C)C)Nc2ccccc21`, the T/C by setting is: (dose: 12.5 mg/kg/injection, schedule: Q01DX009 (ip), vehicle: saline) 104 % of control; (dose: 12.5 mg/kg/injection, schedule: Q04DX003 (ip), vehicle: saline) 100 % of control; under setting [4], 95 % of control; (dose: 25.0 mg/kg/injection, schedule: Q04DX003 (ip), vehicle: saline) 88 % of control; (dose: 50.0 mg/kg/injection, schedule: Q01DX009 (ip), vehicle: saline) 100 % of control; (dose: 50.0 mg/kg/injection, schedule: Q04DX003 (ip), vehicle: saline) 111 % of control.

As for `CCn1c(O)c(N=NC(=S)NC)c2ccccc21`, the T/C (dose: 37.5 mg/kg/injection, schedule: Q01DX009 (ip), vehicle: saline with Tween-80) was 86 % of control.

With `S=c1c(S)c(S)c1=S`, the T/C is 100 % of control (dose: 100.0 mg/kg/injection, schedule: Q04DX002 (ip), vehicle: saline); 100 % of control (dose: 200.0 mg/kg/injection, schedule: Q04DX002 (ip), vehicle: saline); 100 % of control (dose: 400.0 mg/kg/injection, schedule: Q04DX002 (ip), vehicle: saline).

Consider `Cc1cc2c([nH]c1=O)C(=O)c1c(O)cccc1C2=O`, for which the T/C is, setting by setting: (dose: 2.5 mg/kg/injection, schedule: Q01DX009 (ip), vehicle: Klucel (hydroxypropylcellulose) (HPC)) 103 % of control; (dose: 5.0 mg/kg/injection, schedule: Q01DX009 (ip), vehicle: Klucel (hydroxypropylcellulose) (HPC)) 108 % of control; (dose: 10.0 mg/kg/injection, schedule: Q01DX009 (ip), vehicle: Klucel (hydroxypropylcellulose) (HPC)) 103 % of control; (dose: 20.0 mg/kg/injection, schedule: Q01DX009 (ip), vehicle: Klucel (hydroxypropylcellulose) (HPC)) 104 % of control; (dose: 40.0 mg/kg/injection, schedule: Q01DX009 (ip), vehicle: Klucel (hydroxypropylcellulose) (HPC)) 95 % of control; (dose: 80.0 mg/kg/injection, schedule: Q01DX009 (ip), vehicle: Klucel (hydroxypropylcellulose) (HPC)) 115 % of control.

As to `CN(C)[C@@H]1C(=O)C(C(=O)NCN2CCN(C(=N)N=C(N)N)CC2)=C(O)[C@@]2(O)C(=O)C3=C(O)c4c(O)cccc4[C@@](C)(O)[C@H]3C[C@@H]12`, the T/C is, setting by setting: (dose: 0.1 mg/kg/injection, schedule: Q04DX003 (ip), vehicle: saline) 124 % of control; (dose: 1.0 mg/kg/injection, schedule: Q04DX003 (ip), vehicle: saline) 120 % of control; (dose: 5.0 mg/kg/injection, schedule: Q04DX003 (ip), vehicle: saline) 155 % of control.

Turning to `CCOC(=O)c1c/c(=C(\C)O)c(=O)n2c1nc1ccccc12`, the T/C was 100 % of control (dose: 100.0 mg/kg/injection, schedule: Q04DX002 (ip), vehicle: saline with Tween-80); 87 % of control (dose: 200.0 mg/kg/injection, schedule: Q04DX002 (ip), vehicle: saline with Tween-80); 103 % of control (dose: 400.0 mg/kg/injection, schedule: Q04DX002 (ip), vehicle: saline with Tween-80).

Turning to `O=C(/C=C\c1ccnc2ccccc12)c1ccc([N+](=O)[O-])cc1`, the T/C reads like this: (dose: 12.5 mg/kg/injection, schedule: Q04DX003 (ip), vehicle: water) 96 % of control; (dose: 25.0 mg/kg/injection, schedule: Q01DX009 (ip), vehicle: water) 114 % of control; (dose: 25.0 mg/kg/injection, schedule: Q04DX003 (ip), vehicle: water) 90 % of control; (dose: 50.0 mg/kg/injection, schedule: Q01DX009 (ip), vehicle: water) 117 % of control; (dose: 50.0 mg/kg/injection, schedule: Q04DX003 (ip), vehicle: water) 115 % of control; (dose: 100.0 mg/kg/injection, schedule: Q01DX009 (ip), vehicle: water) 95 % of control. For the same molecule, the T/C by setting is: (dose: 100.0 mg/kg/injection, schedule: Q04DX003 (ip), vehicle: water) 106 % of control and 111 % of control; (dose: 200.0 mg/kg/injection, schedule: Q01DX009 (ip), vehicle: water) 98 % of control; (dose: 200.0 mg/kg/injection, schedule: Q04DX003 (ip), vehicle: water) 100 % of control; (dose: 400.0 mg/kg/injection, schedule: Q01DX009 (ip), vehicle: water) 96 % of control; (dose: 400.0 mg/kg/injection, schedule: Q04DX003 (ip), vehicle: water) 100 % of control.

`CC(=O)C(c1ccccc1)[N+](C)(C)C` (stereo not given): the T/C (dose: 100.0 mg/kg/injection, schedule: Q04DX003 (ip), vehicle: other) is 108 % of control.

On to `Cc1cc(=O)c(O)c(N(C)C)o1`, for which the T/C reads like this: under setting [1], 95 % of control; under setting [2], 106 % of control; under setting [3], 102 % of control.

In the case of `BrCCN(CCBr)c1cccc(/C=C/c2ccccc2)c1`, the T/C (dose: 50.0 mg/kg/injection, schedule: Q01DX009 (ip), vehicle: Klucel (hydroxypropylcellulose) (HPC)) was 99 % of control; the T/C (dose: 100.0 mg/kg/injection, schedule: Q01DX009 (ip), vehicle: Klucel (hydroxypropylcellulose) (HPC)) is 101 % of control; the T/C (dose: 200.0 mg/kg/injection, schedule: Q01DX009 (ip), vehicle: Klucel (hydroxypropylcellulose) (HPC)) was 114 % of control.

As for `c1ccc(N=NC2=NN(c3ccccc3)CS2)cc1`, the T/C is 116 % of control (dose: 25.0 mg/kg/injection, schedule: Q01DX009 (ip), vehicle: saline with Tween-80) and 116 % of control under setting [1].

For `CN=C(N)c1ccc(N=C(N)c2ccc(N=C(N)c3ccc(N)cc3)cc2)cc1`, the T/C reads like this: (dose: 16.0 mg/kg/injection, schedule: Q01DX009 (ip), vehicle: saline) 227 % of control; under setting [4], 245 % of control; (dose: 35.0 mg/kg/injection, schedule: Q01DX009 (ip), vehicle: saline) 195 % of control.

On to `CS(=O)(=O)OCC(=O)NCCNC(=O)COS(C)(=O)=O`, for which the T/C by setting is: (dose: 200.0 mg/kg/injection, schedule: Q04DX003 (ip), vehicle: saline with Tween-80) 152 % of control; (dose: 264.0 mg/kg/injection, schedule: Q04DX003 (ip), vehicle: saline with Tween-80) 160 % of control; (dose: 264.0 mg/kg/injection, schedule: Q04DX003 (ip), vehicle: saline) 165 % of control; (dose: 400.0 mg/kg/injection, schedule: Q04DX003 (ip), vehicle: saline with Tween-80) 169 % of control and 180 % of control; (dose: 400.0 mg/kg/injection, schedule: Q04DX003 (ip), vehicle: saline) 152 % of control; (dose: 600.0 mg/kg/injection, schedule: Q04DX003 (ip), vehicle: saline) 182 % of control.

With `O=C(O)c1ccc(NC(=O)C(F)(F)F)cc1`, the T/C by setting is: (dose: 25.0 mg/kg/injection, schedule: Q04DX003 (ip), vehicle: saline sonified) 86 % of control; (dose: 100.0 mg/kg/injection, schedule: Q04DX003 (ip), vehicle: saline sonified) 95 % of control.
